What was measured:
[1] = target: T1, human adenosine A2A receptor (Homo sapiens, UniProt P29274); assay: Human adenosine A2A receptor [3H]-SCH-58261 binding assay; conditions: for Ki: affinity to human adenosine A2A receptor, read-out: Ki HA2A; for selectivity (A1/A2a): calculated ratio of the affinity to the HA1 receptor to the HA2a receptor
T1 construct: expressed in transfected cells; host or cells: CHO cells, Semliki Forest virus expression system; membrane preparation

HA1 adenosine receptor = target: T2, HA1 adenosine receptor (Homo sapiens, UniProt P30542); assay: Human adenosine A1 receptor affinity (Ki hA1); type: binding; conditions: affinity to human adenosine A1 receptor
T2 sequence (P30542 1-326): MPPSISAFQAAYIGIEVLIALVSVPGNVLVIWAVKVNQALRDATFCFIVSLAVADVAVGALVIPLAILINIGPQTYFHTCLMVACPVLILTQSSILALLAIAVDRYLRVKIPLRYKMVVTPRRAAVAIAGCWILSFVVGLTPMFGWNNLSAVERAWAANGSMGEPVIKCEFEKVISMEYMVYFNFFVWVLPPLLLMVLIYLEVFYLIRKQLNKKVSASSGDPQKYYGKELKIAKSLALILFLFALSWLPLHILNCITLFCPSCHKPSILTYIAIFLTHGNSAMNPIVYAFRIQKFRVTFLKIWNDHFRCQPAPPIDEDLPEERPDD

T1 sequence (P29274 whole entry): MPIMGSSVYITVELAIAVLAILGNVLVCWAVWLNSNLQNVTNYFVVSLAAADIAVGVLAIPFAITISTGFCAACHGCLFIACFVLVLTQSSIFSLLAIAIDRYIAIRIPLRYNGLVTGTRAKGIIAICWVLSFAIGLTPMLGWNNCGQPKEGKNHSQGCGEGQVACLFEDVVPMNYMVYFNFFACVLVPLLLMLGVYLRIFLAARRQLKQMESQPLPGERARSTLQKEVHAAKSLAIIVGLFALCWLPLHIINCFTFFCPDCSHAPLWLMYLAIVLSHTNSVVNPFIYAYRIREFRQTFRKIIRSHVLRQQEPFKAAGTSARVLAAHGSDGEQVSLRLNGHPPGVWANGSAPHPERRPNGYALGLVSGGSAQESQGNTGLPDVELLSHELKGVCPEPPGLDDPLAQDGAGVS

| SMILES | Ki [1] [nM] | selectivity (A1/A2a) [1] | Ki (HA1 adenosine receptor) [nM] |
| --- | --- | --- | --- |
| Nc1cc(C(=O)N2CCSC2)cc2nc(-c3nccs3)nn12 [Example 289, (5-Amino-2-thiazol-2-yl-[1,2,4]triazolo[1,5-a]pyridin-7-yl)-thiazolidin-3-yl-methanone] | 55.3 | 42.0 | 2320 |
| C=CCN(CC=C)C(=O)c1cc(N)n2nc(-c3nccs3)nc2c1 [Example 290, 5-Amino-2-thiazol-2-yl-[1,2,4]triazolo[1,5-a]pyridine-7-carboxylic acid diallylamide] | 57.6 | 22.2 | 1280 |
| CCCCN(CC)C(=O)c1cc(N)n2nc(-c3nccs3)nc2c1 [Example 291, 5-Amino-2-thiazol-2-yl-[1,2,4]triazolo[1,5-a]pyridine-7-carboxylic acid butyl-ethyl-amide] | 89.5 | 17.2 | 1540 |
| CCCCCN(C)C(=O)c1cc(N)n2nc(-c3nccs3)nc2c1 [Example 292, 5-Amino-2-thiazol-2-yl-[1,2,4]triazolo[1,5-a]pyridine-7-carboxylic acid methyl-pentyl-amide] | 108 | 13.9 | 1510 |
| CCN1CCN(C(=O)c2cc(N)n3nc(-c4ccc(Br)o4)nc3c2)CC1 [Example 299, [5-Amino-2-(5-bromo-furan-2-yl)-[1,2,4]triazolo[1,5-a]pyridin-7-yl]-(4-ethyl-piperazin-1-yl)-methanone] | 123 | 13.0 | 1600 |
| NC(=O)C1CCN(C(=O)c2cc(N)n3nc(-c4ccc(Br)o4)nc3c2)CC1 [Example 300, 1-[5-Amino-2-(5-bromo-furan-2-yl)-[1,2,4]triazolo[1,5-a]pyridine-7-carbonyl]-piperidine-4-carboxylic acid amide] | 74.7 | 5.2 | 385 |
| CC1CCC(C)N1C(=O)c1cc(N)n2nc(-c3nccs3)nc2c1 (stereo not drawn) [Example 301] | 62.1 | 30.5 | 1900 |
| CC1C=CC(C)N1C(=O)c1cc(N)n2nc(-c3nccs3)nc2c1 (stereo not drawn) [Example 302] | 104 | 19.4 | 2020 |
| CC1CCCC(C)N1C(=O)c1cc(N)n2nc(-c3ccc(Br)o3)nc2c1 (stereo not drawn) [Example 303, [5-Amino-2-(5-bromo-furan-2-yl)-[1,2,4]triazolo[1,5-a]pyridin-7-yl]-(2,6-dimethyl-piperidin-1-yl)-methanone] | 149 | 8.7 | 1300 |
| CCN(CC)CCN(CC)C(=O)c1cc(N)n2nc(-c3ccc(Br)o3)nc2c1 [Example 309, 5-Amino-2-(5-bromo-furan-2-yl)-[1,2,4]triazolo[1,5-a]pyridine-7-carboxylic acid (2-diethylamino-ethyl)-ethyl-amide] | 49.5 | 9.9 | 488 |
| Nc1cc(C(=O)N2CCN(Cc3ccccc3)CC2)cc2nc(-c3ccc(Br)o3)nn12 [Example 310, [5-Amino-2-(5-bromo-furan-2-yl)-[1,2,4]triazolo[1,5-a]pyridin-7-yl]-(4-benzyl-piperazin-1-yl)-methanone] | 148 | 2.1 | 314 |
| Nc1cc(C(=O)N(CC(F)(F)F)CC(F)(F)F)cc2nc(-c3ccc(Br)o3)nn12 [Example 311, 5-Amino-2-(5-bromo-furan-2-yl)-[1,2,4]triazolo[1,5-a]pyridine-7-carboxylic acid bis-(2,2,2-trifluoro-ethyl)-amide] | 25.8 | 22.3 | 577 |
| Nc1cc(C(=O)N2CC=CCC2)cc2nc(-c3nccs3)nn12 [Example 315, (5-Amino-2-thiazol-2-yl-[1,2,4]triazolo[1,5-a]pyridin-7-yl)-(3,6-dihydro-2H-pyridin-1-yl)-methanone] | 97.5 | 20.4 | 1990 |
| CC1CCCN(C(=O)c2cc(N)n3nc(-c4nccs4)nc3c2)C1 (stereo not drawn) [Example 316, (5-Amino-2-thiazol-2-yl-[1,2,4]triazolo[1,5-a]pyridin-7-yl)-(3,methyl-piperidin-1-yl)-methanone] | 72.3 | 30.3 | 2190 |
| Nc1cc(C(=O)N2CCCCCC2)cc2nc(-c3nccs3)nn12 [Example 317, (5-Amino-2-thiazol-2-yl-[1,2,4]triazolo[1,5-a]pyridin-7-yl)-azepan-1-yl-methanone] | 34.5 | 33.6 | 1160 |
| CCCN(CC1CC1)C(=O)c1cc(N)n2nc(-c3nccs3)nc2c1 [Example 319, 5-Amino-2-thiazol-2-yl-[1,2,4]triazolo[1,5-a]pyridine-7-carboxylic acid cyclopropylmethyl-propyl-amide] | 87 | 14.3 | 1240 |
| CC1CCCC(C)N1C(=O)c1cc(N)n2nc(-c3nccs3)nc2c1 (stereo not drawn) [Example 320] | 82.7 | 7.4 | 614 |
| CN(CCc1ccccc1)C(=O)c1cc(N)n2nc(-c3nccs3)nc2c1 [Example 322, 5-Amino-2-thiazol-2-yl-[1,2,4]triazolo[1,5-a]pyridine-7-carboxylic acid methyl-phenethyl-amide] | 127 | 9.6 | 1220 |
| CCN(Cc1ccccc1)C(=O)c1cc(N)n2nc(-c3nccs3)nc2c1 [Example 323, 5-Amino-2-thiazol-2-yl-[1,2,4]triazolo[1,5-a]pyridine-7-carboxylic acid benzyl-ethyl-amide] | 25.2 | 13.6 | 342 |
| CCN(Cc1ccncc1)C(=O)c1cc(N)n2nc(-c3nccs3)nc2c1 [Example 325, 5-Amino-2-thiazol-2-yl-[1,2,4]triazolo[1,5-a]pyridine-7-carboxylic acid ethyl-pyridin-4-ylmethyl-amide] | 37.6 | 35.2 | 1330 |

These reach a lower Ki [1]. Values come first.

| Ki [1] [nM] | selectivity (A1/A2a) [1] | Ki (HA1 adenosine receptor) [nM] | SMILES |
| --- | --- | --- | --- |
| 24.1 | 21.9 | 528 | CN(C)C(=O)c1cc(N)n2nc(-c3ccc(Br)o3)nc2c1 [Example 293, 5-Amino-2-(5-bromo-furan-2-yl)-[1,2,4]triazolo[1,5-a]pyridine-7-carboxylic acid dimethylamide] |
| 4.1 | 35.0 | 143 | Nc1cc(C(=O)N2CC=CCC2)cc2nc(-c3ccc(Br)o3)nn12 [Example 294, [5-Amino-2-(5-bromo-furan-2-yl)-[1,2,4]triazolo[1,5-a]pyridin-7-yl]-(3,6-dihydro-2H-pyridin-1-yl)-methanone] |
| 1.7 | 31.0 | 52.7 | Nc1cc(C(=O)N2CCCCCC2)cc2nc(-c3ccc(Br)o3)nn12 [Example 296] |
| 2.2 | 42.7 | 94 | CCCN(CC1CC1)C(=O)c1cc(N)n2nc(-c3ccc(Br)o3)nc2c1 [Example 298, 5-Amino-2-(5-bromo-furan-2-yl)-[1,2,4]triazolo[1,5-a]pyridine-7-carboxylic acid cyclopropylmethyl-propyl-amide] |
| 9.3 | 41.0 | 382 | CC1CN(C(=O)c2cc(N)n3nc(-c4ccc(Br)o4)nc3c2)CC(C)O1 (stereo not drawn) [Example 304, [5-Amino-2-(5-bromo-furan-2-yl)-[1,2,4]triazolo[1,5-a]pyridin-7-yl]-(2,6-dimethyl-morpholin-4-yl)-methanone] |
| 5.2 | 26.8 | 139 | COCCN(CCOC)C(=O)c1cc(N)n2nc(-c3ccc(Br)o3)nc2c1 [Example 305, 5-Amino-2-(5-bromo-furan-2-yl)-[1,2,4]triazolo[1,5-a]pyridine-7-carboxylic acid bis-(2-methoxy-ethyl)-amide] |
| 1.7 | 12.5 | 21.2 | CCN(Cc1ccccc1)C(=O)c1cc(N)n2nc(-c3ccc(Br)o3)nc2c1 [Example 307, 5-Amino-2-(5-bromo-furan-2-yl)-[1,2,4]triazolo[1,5-a]pyridine-7-carboxylic acid benzyl-ethyl-amide] |
| 9.8 | 47.2 | 463 | CN(CCc1ccccn1)C(=O)c1cc(N)n2nc(-c3ccc(Br)o3)nc2c1 [Example 308, 5-Amino-2-(5-bromo-furan-2-yl)-[1,2,4]triazolo[1,5-a]pyridine-7-carboxylic acid methyl-(2-pyridin-2-yl-ethyl)-amide] |
| 21.8 | 10.4 | 227 | Nc1cc(C(=O)N2CC=C(c3ccccc3)CC2)cc2nc(-c3ccc(Br)o3)nn12 [Example 312, [5-Amino-2-(5-bromo-furan-2-yl)-[1,2,4]triazolo[1,5-a]pyridin-7-yl]-(4-phenyl-3,6-dihydro-2H-pyridin-1-yl)-methanone] |
| 1.2 | 14.8 | 17.8 | Nc1cc(C(=O)N(Cc2ccccc2)Cc2ccccc2)cc2nc(-c3ccc(Br)o3)nn12 [Example 313, 5-Amino-2-(5-bromo-furan-2-yl)-[1,2,4]triazolo[1,5-a]pyridine-7-carboxylic acid dibenzylamide] |
| 1.2 | 49.3 | 59.1 | CCN(Cc1ccncc1)C(=O)c1cc(N)n2nc(-c3ccc(Br)o3)nc2c1 [Example 314, 5-Amino-2-(5-bromo-furan-2-yl)-[1,2,4]triazolo[1,5-a]pyridine-7-carboxylic acid ethyl-pyridin-4-ylmethyl-amide] |

— US6506772B1, “Substituted [1,2,4]triazolo[1,5a]pyridine derivatives with activity as adenosine receptor ligands” (Hoffmann-La Roche Inc., priority 2000, dated 2003)
